Like-named read-outs stand apart in the source and are kept apart here.
How the values were obtained:
denervated EDL muscle = assay: Denervation atrophy of EDL muscle after peroneal nerve crush (wet muscle weight, protein content); assay type: in vivo, Sprague Dawley rats; conditions: for Muscle wt / Proteins: peptide crushed; for Muscle wt: wet EDL weight; for Proteins: ug protein content per mg muscle weight
Description: LHRH analogs can be tested for effectiveness in treating injured nerve tissue or preserving muscle mass according to the testing procedures described below for the LHRH analog BIM-21009. BIM-21009 is an antagonist of LHRH activity having the amino acid formula N-Acetyl-D-Naphthylalanine-D-para-Cl-Phe-D-Phe-Ser-Tyr-D-Arg-Phe-Arg-Pro-D-Ala-NH2. BIM-21009 was administered to animals both prior to and after denervation. The animals were prepared for treatment as follows.
Adult male and female Sprague Dawley rats (Hilltop) weighing approximately 250-275 g were housed in groups of three of the same sex and provided with Purina rat chow and water ad libitum. They were maintained in a 12L:12D photoperiod with lights off at 19:00 hr. Animals were divided into 2 groups having six subdivisions each of 5-7 animals: (1) four days post-lesion: "sham crushed" (i.e., sham nerve crush) males and females, "intact crushed" (i.e., nerve crush control group) males and females, and "LHRH antagonist treated and crushed" (i.e., peptide treatment after nerve crush, also referred to as "peptide crushed") males and females; and (2) twelve days post-lesion: sham crushed males and females, intact crushed males and females, and LHRH treated and crushed males and females.
All animals were anesthetized with an 8% solution of chloral hydrate (0.4 g/kg). An incision was made on the left leg and the peroneal nerve was exposed at its site of entrance into the peroneal longus muscle. The nerve was crushed with a watchmaker forcep having a uniformly filed tip of 0.2 mm, by applying pressure on the nerve for 10 seconds, rotating the forceps, and applying pressure again on the opposite side for another 10 seconds. After crush, this area of approximately 1 mm becomes translucid. This modified crush method gives well-defined axonal interruption without disrupting the connective tissue sheaths or blood vessels in the region.
All chemically treated animals received 1 s.c. injection of the LHRH antagonist BIM-21009 at a dosage of 5 mg/kg 24 hrs prior to denervation. Animals in the 12 day groups received an additional injection of 5 mg/kg 6 days after the first injection.
Dissections were performed between 13:00 and 15:00 hrs. The peroneal nerve was allowed to regenerate for 4 or 12 days, after which the animals were anesthetized with chloral hydrate (0.4 g/kg), the extensor digitorum longus ("EDL") was dissected, frozen on powdered dry ice and stored at -70° C. until the day of the assay.
The Lowry Method was used for protein determinations. Statistical analysis was performed using 2×2 ANOVA, 1 way ANOVA. Tukey's HSD test was used for post-hoc comparisons.

acetylcholine receptors = assay type: in vivo, Sprague Dawley rats; conditions: for AChR (cpm) / AChR: peptide crushed; for AChR: fmoles per ug protein
[1] = females, 4 days post-lesion, 5 mg/kg s.c.
[2] = females, 12 days post-lesion, 2 x 5 mg/kg s.c.
[3] = males, 4 days post-lesion, 5 mg/kg s.c.
[4] = males, 12 days post-lesion, 2 x 5 mg/kg s.c.

N-Acetyl-D-Naphthylalanine-D-para-Cl-Phe-D-Phe-Ser-Tyr-D-Arg-Phe-Arg-Pro-D-Ala-NH2 [BIM-21009]
atrophy of the denervated EDL muscle vs crushed control group (denervated EDL muscle; both at 4 days and at 12 days post-lesion, less striking in females than in males): significantly decreased | recovery from the crush-induced muscle atrophy: protein content (denervated EDL muscle; females as well as males (FIG. 2)): increase in protein content rather than fat accumulation or edema | Muscle wt (denervated EDL muscle; females, 4 days post-lesion, 5 mg/kg s.c. 24 hrs prior to denervation): 83.8 mg | Proteins (denervated EDL muscle; [1]): 4.58 µg | Muscle wt (denervated EDL muscle; females, 12 days post-lesion, 5 mg/kg s.c. 24 hrs prior to denervation plus 5 mg/kg 6 days later): 84.0 mg | Proteins (denervated EDL muscle; [2]): 4.23 µg | protection of EDL muscle from denervation atrophy (denervated EDL muscle; males): protects the EDL muscle in the males from denervation atrophy | Muscle wt (denervated EDL muscle; males, 4 days post-lesion, 5 mg/kg s.c. 24 hrs prior to denervation): 81.2 mg | Proteins (denervated EDL muscle; [3]): 4.05 µg | Muscle wt (denervated EDL muscle; males, 12 days post-lesion, 5 mg/kg s.c. 24 hrs prior to denervation plus 5 mg/kg 6 days later): 83.1 mg | Proteins (denervated EDL muscle; [4]): 4.34 µg | ratio of cpm/mg muscle vs intact crushed groups (acetylcholine receptors; both males and females (FIG. 5)): higher ratio of cpm/mg muscle | number of ACh receptors (acetylcholine receptors; both sexes, at 4 days after nerve crush, more marked in males): dramatic increase | time course of effect on ACh receptor number (acetylcholine receptors; day 4 vs day 12 post-lesion): maximal effect at day 4 post-lesion and a minimal or null effect by day 12 | AChR (cpm) (acetylcholine receptors; [1]): 23.39 cpm | AChR (acetylcholine receptors; [1]): 90.07 fmol | AChR (cpm) (acetylcholine receptors; [2]): 15.34 cpm | AChR (acetylcholine receptors; [2]): 65.74 fmol | ratio of AChR number/muscle (fM AChR/mg muscle or fM/ug protein) vs crushed group with intact gonads (acetylcholine receptors; male and female rats (FIGS. 3 and 4)): significantly higher ratio | AChR number/muscle weight ratio vs crushed untreated controls (acetylcholine receptors; males with intact gonads (FIG. 4)): higher than in the crushed untreated controls | AChR (cpm) (acetylcholine receptors; [3]): 38.37 cpm | AChR (acetylcholine receptors; [3]): 166.96 fmol | AChR (cpm) (acetylcholine receptors; [4]): 19.01 cpm | AChR (acetylcholine receptors; [4]): 82.09 fmol

From patent publication US5084443A, “Promoting expression of acetylcholine receptors with LHRH antagonist” (Biomeasure, Inc., priority 1989, dated 1992)
